US20250140406A1, “CLASSIFYING TUMORS AND PREDICTING RESPONSIVENESS” (Oncocyte Corporation, priority 2022, published 2025)

Experiments:
[1] = test system: cancer cell lines classified IM, MSL, M; test: PRISM screen compound sensitivity correlated with IM, MSL and M subtype of cell lines (101 gene signature); assay type: cell-based; conditions: for IM Corr test: correlation of PRISM compound sensitivity with IM subtype correlation; for M Corr test: correlation of PRISM compound sensitivity with M subtype correlation; for MSL Corr test: correlation of PRISM compound sensitivity with MSL subtype correlation
[2] = test system: cancer cell lines, DetermaIO classes; test: Association of PRISM compound sensitivity with DetermaIO (DTIO) cell line classes; assay type: cell-based
[3] = subtype (IM, MSL or M) assigned to the compound by negative correlation of PRISM sensitivity with subtype, training cell set (371 cell lines), 101 gene signature
[4] = correlation of PRISM compound sensitivity with DTIO (DetermaIO); test cell set (188 cell lines)
[5] = correlation of PRISM compound sensitivity with DTIO (DetermaIO); training cell set (371 cell lines)
[6] = correlation of PRISM compound sensitivity with DTIO; test cell set
[7] = correlation of PRISM compound sensitivity with DTIO; training cell set
[8] = subtype (IM, MSL or M) with which PRISM compound sensitivity is negatively correlated, training cell set, 101 gene signature
[9] = subtype (IM, MSL or M) with which compound sensitivity is negatively correlated, training cell set (371 cell lines), 101 gene signature
[10] = correlation of compound sensitivity with DetermaIO (DTIO), test set
[11] = correlation of compound sensitivity with DetermaIO (DTIO), training set

Structure (SMILES) | IM Corr test ([1]; test cell set (188 cell lines)) | M Corr test ([1]; test cell set (188 cell lines)) | MSL Corr test ([1]; test cell set (188 cell lines)) | DTIO Corr test [2, 4] | DTIO Corr train [2, 5] | IM Corr test ([1]; test cell set) | M Corr test ([1]; test cell set) | MSL Corr test ([1]; test cell set) | DTIO Corr test [2, 6] | DTIO Corr train [2, 7] | other results
c1ccc2sc(N3CCN(Cc4ccc5c(c4)OCO5)CC3)nc2c1 | 0.03417 | −0.06017 | −0.05087 | 0.0115 | 0.00776 | – | – | – | – | – | TNBCType train [1, 3]: MSL
CCCCC/C=C\C=C\CCCCCCCCC(=O)O | – | – | – | – | – | −0.1138 | 0.05243 | 0.00293 | −0.07628 | −0.1009 | –
CN(N=O)C(=O)N[C@H]1C(O)O[C@H](CO)[C@@H](O)[C@@H]1O (mixture of isomers) [streptozotocin] | – | – | – | – | – | −0.07058 | 0.07616 | −0.07788 | −0.06131 | 0.03601 | TNBCType train [1, 8]: MSL
CCNCCCNCCCCNCCCNCC [1,12-Besm] | −0.00575 | −0.0837 | −0.1322 | – | – | – | – | – | 0.02016 | 0.07515 | –
C[C@@]1(O)[C@H](O)[C@@H](CO)O[C@H]1n1cnc2c(NC3CCCC3)nc(Cl)nc21 [2′-MeCCPA] | −0.06271 | 0.03452 | −0.04413 | −0.0753 | −0.01341 | – | – | – | – | – | TNBCType train [1, 3]: MSL
Nc1nccc2c1ncn2C1C=C(CO)C(O)C1O (centres unmarked) [3-deazaneplanocin-A] | −0.02722 | 0.1507 | 0.09034 | −0.05245 | −0.1309 | – | – | – | – | – | –
O=c1[nH]cnc2ccccc12 [4-HQN] | −0.06704 | 0.04595 | 0.1063 | 0.05447 | −0.1475 | – | – | – | – | – | –
O=S(=O)(O)c1ccc(O)cc1 [4-phenolsulfonic-acid] | – | – | – | – | – | −0.06223 | 0.02717 | 0.006866 | −0.03477 | −0.1569 | –
O=C(O)c1ccc(N2C(=O)/C(=C\c3ccc(-c4ccc([N+](=O)[O-])cc4)o3)C=C2c2ccccc2)cc1 [4E1RCat] | 0.05564 | −0.08971 | 0.01051 | 0.01627 | 0.1551 | – | – | – | – | – | –
Cc1ccc(C[N+](C)(C)C)o1.[I-] [5-methylfurmethiodide] | – | – | – | – | – | −0.09845 | 0.06783 | 0.0844 | −0.01347 | −0.1413 | –
CN[C@@H]1C[C@H]2O[C@@](C)([C@@H]1OC)n1c3ccccc3c3c4c(c5c6ccccc6n2c5c31)C(=O)N[C@H]4O [7-hydroxystaurosporine] | – | – | – | – | – | −0.06588 | 0.06924 | 0.09088 | −0.07646 | −0.1515 | –
COc1ccc2nc3c(c(N)c2c1)CCCC3 [7-methoxytacrine] | – | – | – | – | – | −0.03879 | −0.03683 | −0.06604 | 0.06329 | −0.03204 | TNBCType train [1, 8]: MSL
Nc1nc2c(nc(Br)n2[C@@H]2O[C@@H]3COP(=O)(O)O[C@H]3[C@H]2O)c(=O)[nH]1 [8-bromo-cGMP] | −0.00708 | −0.06633 | −0.05953 | – | – | – | – | – | −0.017 | 0.07485 | TNBCType train [1, 9]: MSL
CCN(CC)CCCCN1c2ccccc2Oc2ccc(Cl)cc21 [10-DEBC] | −0.00116 | −0.0627 | −0.03074 | −0.02503 | −0.1109 | – | – | – | – | – | –
Cc1ccc(Sc2cncc3sc(C(N)=O)cc23)cc1 [A205804] | −0.1562 | 0.1655 | 0.07391 | −0.1235 | −0.1273 | – | – | – | – | – | –
C/C=C1/[C@H](O[C@@H]2O[C@H](CO)[C@@H](O)[C@H](O)[C@H]2O)OC=C(C(=O)OC)[C@H]1CC(=O)OCCc1ccc(O)c(O)c1 [A00842753] | – | – | – | – | – | – | – | – | – | – | TNBCType test ([1]; classification of association of compound sensitivity with IM, MSL and M cell line classes, test data set): MSL; TNBCType train ([1]; classification of association of compound sensitivity with IM, MSL and M cell line classes, training data set): MSL; DTIO Corr test ([2]; association of compound sensitivity with DetermaIO classes; test data set): 0.02172; DTIO Corr train ([2]; association of compound sensitivity with DetermaIO classes; training data set): −0.00213

Structure (SMILES) | IM Corr test ([1]; test cell set (188 cell lines)) | M Corr test ([1]; test cell set (188 cell lines)) | MSL Corr test ([1]; test cell set (188 cell lines)) | DTIO Corr test [2, 4] | DTIO Corr train [2, 5] | IM Corr test ([1]; test cell set) | M Corr test ([1]; test cell set) | MSL Corr test ([1]; test cell set) | DTIO Corr test [2, 6] | DTIO Corr train [2, 7] | other results
C#Cc1cccc2c1c(C(=O)c1ccc(Cn3c(C)nc4cnccc43)c(F)c1)cn2C(=O)N(C)C [ABT-491] | −0.08486 | 0.04621 | 0.009812 | – | – | – | – | – | – | – | DTIO Corr test ([2]; correlation of PRISM compound sensitivity with DTIO; test cell set (188 cell lines)): −0.1207; DTIO Corr train ([2]; correlation of PRISM compound sensitivity with DTIO; training cell set (371 cell lines)): −0.1065
C/C(=N\NC(=O)[C@H]1C(=O)NC[C@@H]1c1ccccc1)c1cccc(Br)c1 [AC-264613] | −0.07621 | 0.0938 | 0.002402 | −0.03521 | −0.07682 | – | – | – | – | – | –
C[C@H](Nc1ncnc2[nH]cnc12)c1cc2ccc(F)cc2nc1-c1ccccn1 [AMG319] | 0.07986 | −0.1713 | −0.08814 | – | – | – | – | – | 0.03283 | −0.03859 | TNBCType train [1, 9]: MSL
C[C@H](Nc1ncnc2[nH]cnc12)c1cc2ccc(F)cc2nc1-c1ccccn1 [AMG-319] | – | – | – | – | – | −0.00518 | −0.1202 | −0.07748 | −0.04463 | −0.0218 | TNBCType train [1, 8]: MSL
CCOc1ccc(-n2c([C@@H](C)N(Cc3cccnc3)C(=O)Cc3ccc(OC(F)(F)F)cc3)nc3ncccc3c2=O)cc1 [AMG-487] | −0.08583 | 0.04766 | 0.1557 | −0.01666 | −0.0821 | – | – | – | – | – | –
C[C@@H]1COC(Nc2ccc3ncnc(Nc4ccc(OCc5nccs5)c(Cl)c4)c3c2)=N1 [ARRY-334543] | – | – | – | – | – | −0.1679 | 0.2632 | 0.3622 | −0.03109 | −0.05992 | DTIO Corr test [2, 10]: −0.03109; DTIO Corr train [2, 11]: −0.05992
Clc1ccc(C2(c3ccc(-c4cn[nH]c4)cc3)CCNCC2)cc1 [AT7867] | 0.04603 | −0.1665 | −0.1142 | – | – | – | – | – | 0.003574 | 0.04812 | TNBCType train [1, 9]: MSL
C=CC(=O)Nc1cc2c(Nc3ccc(F)c(Cl)c3)ncnc2cc1C#CC(C)(C)N1CCN(C)CC1.Cc1ccc(S(=O)(=O)O)cc1.Cc1ccc(S(=O)(=O)O)cc1 [AV-412] | – | – | – | – | – | −0.1668 | 0.2317 | 0.3378 | −0.04654 | −0.09469 | DTIO Corr test ([2]; correlation of compound sensitivity with DTIO; test set): −0.04654; DTIO Corr train ([2]; correlation of compound sensitivity with DTIO; training set): −0.09469
Cc1cc(Nc2nc(N[C@@H](C)c3ccc(F)cc3)c(C#N)cc2F)n[nH]1 [AZ960] | −0.0625 | 0.008122 | 0.05509 | −0.07766 | −0.135 | – | – | – | – | – | –
Cc1ccc(NC(=O)c2cccc(C(C)(C)C#N)c2)cc1Nc1ccc2ncn(C)c(=O)c2c1 [AZ-628] | 0.3356 | −0.2327 | 0.1133 | – | – | – | – | – | 0.3247 | 0.1908 | DTIO Corr test [2, 10]: 0.3247; DTIO Corr train [2, 11]: 0.1908; DTIO Corr test ([2]; correlation of compound sensitivity with DetermaIO (DTIO); test set): 0.3247; DTIO Corr train ([2]; correlation of compound sensitivity with DetermaIO (DTIO); training set): 0.1908
C=CCNC(=O)c1cc([N+](=O)[O-])cc2c(=O)[nH]c(Nc3ccc(Cl)c(Cl)c3)nc12 [AZ-10417808] | – | – | – | – | – | −0.06367 | 0.03341 | 0.2588 | −0.05539 | −0.1839 | –
N[C@@H]1CCCN(c2c(/C=C3\SC(=O)NC3=O)cccc2-c2ccccc2)C1 [AZD1208] | – | – | – | – | – | 0.06359 | −0.02916 | 0.004575 | 0.02868 | 0.03472 | –
C[C@@H](Oc1cc(NS(=O)(=O)N2CCC2)nc(SCc2cccc(F)c2F)n1)[C@@H](O)CO [AZD5069] | – | – | – | – | – | −0.07882 | 0.1362 | 0.02875 | −0.00725 | −0.151 | –
Cc1ncc(-c2ccnc(Nc3ccc(S(C)(=O)=O)cc3)n2)n1C(C)C [AZD5438] | −0.1498 | 0.0844 | 0.1271 | −0.1301 | −0.08372 | – | – | – | – | – | –
Cc1nc(C)c(-c2ccc(C3CCC(CC(=O)O)CC3)cc2)nc1C(N)=O (centres unmarked) [AZD7687] | – | – | – | – | – | −0.05809 | 0.08898 | 0.08286 | −0.03167 | −0.02143 | –
